According to patent US20230028441A1, “NOVEL HETEROARYL-TRIAZOLE COMPOUNDS AS PESTICIDES” (Bayer Aktiengesellschaft, priority 2019, published 2023):

Tests used:
Format in all cases: in vivo
[1] = system: adult unfed cat fleas (Ctenocephalides felis); experiment: Ctenocephalides felis oral test; conditions: 48 h, 100 ppm in cattle blood, after 2 days
Protocol: Solvent: dimethyl sulfoxide
To produce a suitable preparation of active compound, 10 mg of active compound are dissolved in 0.5 mL solvent, and the concentrate is diluted with cattle blood to the desired concentration.
Approximately 20 adult unfed cat fleas (Ctenocephalides felis) are placed in flea chambers. The blood chamber, sealed with parafilm on the bottom, are filled with cattle blood supplied with compound solution and placed on the gauze covered top of the flea chamber, so that the fleas are able to suck the blood. The blood chamber is heated to 37° C. whereas the flea chamber is kept at room temperature.
After 2 days mortality in % is determined. 100% means all the fleas have been killed; 0% means none of the fleas have been killed.

[2] = system: larvae of the southern green stink bug (Nezara viridula); experiment: Nezara viridula spray test; conditions: in Hordeum vulgare, 96 h
Summary of the method: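 Percent mortality of southern green stink bug larvae read 4 days after spraying infested Hordeum vulgare. Test solutions: compound in acetone plus dimethylformamide, diluted with emulsifier-containing water (1000 ppm alkylarylpolyglycol ether).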

[3] = system: adult engorged female ticks (Rhipicephalus microplus); experiment: Rhipicephalus (Boophilus) microplus injection test; conditions: 168 h, egg deposition after 7 days, read-out: efficacy (infertile eggs); for pest or weed control at 0.004 mg: 4 μg/animal; for pest or weed control at 0.02 mg: 20 μg/animal
Summary of the method: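 Efficacy is the share of infertile eggs: 100% means none are fertile, 0% means all are fertile. Egg deposition was checked 7 days after injecting 1 μL of DMSO-diluted compound into the abdomen of five engorged female R. microplus, with doubtful eggs kept about 42 days to hatching. The stock was 10 mg in 0.5 mL DMSO.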

[4] = system: green peach aphid (Myzus persicae); experiment: Myzus persicae oral test; conditions: 120 h
Protocol: Solvent: 100 parts by weight acetone
To produce a suitable preparation of active compound, 1 part by weight of active compound is mixed with the stated amount of solvent, and the concentrate is diluted with water to the desired concentration.
50 μL compound solution is filled in microtiter plates and 150 μL IPL41 insect medium (33%+15% sugar) is added to obtain a total volume of 200 μL per well. Afterwards the plates are sealed with parafilm through which a mixed population of the green peach aphid (Myzus persicae) can suck on the compound preparation.
After 5 days mortality in % is determined. 100% means all aphids have been killed and 0% means none of the aphids have been killed.

[5] = system: larvae of the banded cucumber beetle (Diabrotica balteata); experiment: Diabrotica balteata spray test; conditions: 168 h, 100 g/ha (=32 μg/well), after 7 days, wheat seeds, read-out: efficacy (seedlings grown up)
Summary of the method: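 Efficacy (%) read at day 7: 100% means seedlings grew like untreated, uninfested controls; 0% means no seedlings grew. Wheat seeds germinated 1 day on agar, sprayed with emulsified compound solution (1000 ppm emulsifier in water), then each well infested with 10-20 larvae.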

[6] = system: fall armyworm larvae (Spodoptera frugiperda); experiment: Spodoptera frugiperda spray test (maize leaf sections); conditions: 168 h
Summary of the method: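 Percent kill of Spodoptera frugiperda larvae was recorded 7 days after infesting dried, treated maize leaf sections. Spray solutions were made from an acetone/DMF compound preparation diluted with 1000 ppm emulsifier-containing water.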

[7] = system: cattle tick larvae (Rhipicephalus microplus), strain Parkhurst, resistant against synthetic pyrethroids; experiment: Rhipicephalus (Boophilus) microplus in-vitro contact test, larval cattle tick; conditions: 5 μg/cm^2 (=500 g/ha), after 48 hours, read-out: efficacy (larvae dead or moribund)
Protocol: (§1) 9 mg compound is solved in 1 mL acetone and diluted with acetone to the desired concentration. 250 μL of the test solution is filled in 25 mL glass test tubes and homogeneously distributed on the inner walls by rotation and tilting on a shaking device (2 h at 30 rpm). With a compound concentration of 900 ppm, an inner surface of 44.7 cm^2 and a homogeneous distribution, a dose of 5 μg/cm^2 is achieved.
After the solvent has evaporated, each test tube is filled with 20-50 cattle tick larvae (Rhipicephalus microplus), closed with a perforated lid and incubated in a horizontal position at 85% relative humidity and 27° C. in an incubator. After 48 hours efficacy is determined. The larvae are patted on the ground of the tubes and negative geotactic behaviour is recorded.
An efficacy of 100% means all larvae are dead or moribund; 0% means no larvae are dead or moribund.

[8] = system: adult brown dog ticks (Rhipicephalus sanguineus); experiment: Rhipicephalus sanguineus in-vitro contact test with adult brown dog ticks; conditions: after 48 hours, read-out: efficacy (ticks dead or moribund)
Protocol: as §1
After the solvent has evaporated, each test tube is filled with 5-10 adult brown dog ticks (Rhipicephalus sanguineus), closed with a perforated lid and incubated in a lying position at room temperature and relative humidity. After 48 hours efficacy is determined. The ticks are patted on the ground of the tubes and are incubated on a heating plate at 45-50° C. for at most 5 minutes. Immotile or uncoordinated moving ticks, which are not able to escape the heat by climbing upwards, are marked as dead or moribund.
An efficacy of 100% means all ticks are dead or moribund; 0% means no ticks are dead or moribund.

[9] = system: brown planthopper (Nilaparvata lugens); experiment: Nilaparvata lugens spray test; conditions: in Oryza sativa, 96 h
Protocol: Solvent: 78.0 parts by weight of acetone • • 1.5 parts by weight of dimethylformamide
Emulsifier: alkylarylpolyglycol ether
To produce a suitable preparation of active compound, 1 part by weight of active compound is mixed with the stated amount of solvents and is diluted with water, containing an emulsifier concentration of 1000 ppm, to the desired concentration. Further test concentrations are prepared by dilution with emulsifier containing water.
Rice plants (Oryza sativa) are sprayed with a preparation of the active ingredient of the desired concentration and the plants are infested with the brown planthopper (Nilaparvata lugens).
After 4 days mortality in % is determined. 100% means all planthoppers have been killed and 0% means none of the planthoppers have been killed.

| Structure (SMILES) | mortality at 100 ppm [1] [%] | pest or weed control at 0.004 mg [3] [%] | mortality at 4 ppm [4] [%] | pest or weed control at 32 µg/disc, 100 g/ha [5] [%] | mortality at 500 g/ha [2] [%] | mortality at 100 g/ha [6] [%] | mortality at 500 g/ha [9] [%] | also measured |
| --- | --- | --- | --- | --- | --- | --- | --- | --- |
| CC(NC(=O)c1cc(Cl)cc(C(F)(F)F)c1)c1nc(C(N)=O)nn1-c1ncccn1 (single isomer, unassigned) [I-074, 5-[1-[[3-chloro-5-(trifluoromethyl)benzoyl]amino]ethyl]-1-pyrimidin-2-yl-1,2,4-triazole-3-carboxamide] | 100 | 100 | 100 | – | – | – | – | mortality at 100 g/ha [2]: 100% |
| CC(NC(=O)c1cc(Cl)cc(C(F)(F)F)c1)c1nc(C#N)nn1-c1ncccn1 (single isomer, unassigned) [I-080, 3-chloro-N-[1-(5-cyano-2-pyrimidin-2-yl-1,2,4-triazol-3-yl)ethyl]-5-(trifluoromethyl)benzamide] | 100 | 100 | 90 | 100 | – | – | – | – |
| CC(=O)Nc1nc(C(C)NC(=O)c2cc(Cl)cc(S(C)(=O)=O)c2)n(-c2ccc(Cl)cn2)n1 (stereo not shown) [I-017] | 100 | 100 | 100 | – | 100 | – | – | mortality at 500 g/ha [6]: 100%; mortality at 100 g/ha [2]: 90%; pest or weed control at 0.02 mg [3]: 100% |
| CC(Cl)C(=O)Nc1nc(C(C)NC(=O)c2cc(Cl)cc(S(C)(=O)=O)c2)n(-c2ncccn2)n1 (stereo not shown) [I-019] | 100 | 100 | 90 | – | – | – | – | mortality at 100 g/ha [2]: 90% |
| CC(NC(=O)c1cc(Cl)cc(S(C)(=O)=O)c1)c1nc(CS(C)(=O)=O)nn1-c1ccc(Cl)cn1 (stereo not shown) [I-027, 3-chloro-N-[1-[2-(5-chloro-2-pyridyl)-5-(methylsulfonylmethyl)-1,2,4-triazol-3-yl]ethyl]-5-methylsulfonyl-benzamide] | 100 | 80 | 100 | – | 100 | – | – | mortality at 100 g/ha [2]: 100%; pest or weed control at 0.02 mg [3]: 100%; pest or weed control at 5 µg/cm2 [7]: 90% |
| CC(NC(=O)c1cc(Cl)cc(S(C)(=O)=O)c1)c1nc(-c2cnccn2)nn1-c1ncccn1 (stereo not shown) [I-045] | 100 | 100 | 90 | – | – | – | – | pest or weed control at 5 µg/cm2, 500 g/ha ([8]; 5 μg/cm^2 (=500 g/ha)): 80%; pest or weed control at 0.02 mg [3]: 100% |
| CC(NC(=O)c1cc(Cl)cc(S(C)(=O)=O)c1)c1nc(-c2ccco2)nn1-c1ncccn1 (stereo not shown) [I-057] | 100 | 80 | 100 | – | – | – | – | pest or weed control at 0.02 mg [3]: 100% |
| CNC(=O)c1nc(C(C)NC(=O)c2cc(Cl)cc(C(F)(F)F)c2)n(-c2ccc(C#N)cn2)n1 (stereo not shown) [I-079] | 100 | 100 | 100 | – | – | 100 | – | pest or weed control at 0.02 mg [3]: 100%; pest or weed control at 5 µg/cm2 [7]: 100% |
| CC(NC(=O)c1cc(Br)cc(C(F)(F)F)c1)c1nc(N)nn1-c1ncccn1 (stereo not shown) [I-093] | 90 | 100 | 100 | – | – | 83 | – | pest or weed control at 1 µg/cm2, 100 g/ha ([8]; 1 μg/cm^2 (=100 g/ha)): 80%; pest or weed control at 5 µg/cm2 [7]: 100% |
| CON(C)c1nc([C@H](C)NC(=O)c2cc(C(F)(F)F)cc(C(F)(F)F)c2)n(-c2ncccn2)n1 [I-149, N-[(1S)-1-[5-[methoxy(methyl)amino]-2-pyrimidin-2-yl-1,2,4-triazol-3-yl]ethyl]-3,5-bis(trifluoromethyl)benzamide] | – | – | – | 100 | 100 | 100 | 100 | – |
| CON(C)c1nc([C@H](C)NC(=O)c2cc(Br)cc(OC(F)(F)F)c2)n(-c2ncccn2)n1 [I-151] | – | – | – | 100 | 100 | 100 | 100 | – |
| CC(NC(=O)c1cc(Cl)cc(S(C)(=O)=O)c1)c1nc(N2CCOCC2)nn1-c1ccc(C#N)cn1 (stereo not shown) [I-160] | – | – | – | – | – | – | 100 | – |
| CNc1nc([C@H](C)NC(=O)c2cc(C(F)(F)F)cc(C(F)(F)F)c2)n(-c2ccc(C#N)cn2)n1 [I-168] | – | – | – | 100 | 100 | 100 | 100 | – |
| C[C@H](NC(=O)c1cc(Cl)cc(S(C)(=O)=O)c1)c1nc(N)nn1-c1ncccn1 [I-169] | – | – | – | – | 100 | – | 100 | – |
| CC(NC(=O)c1cc(Cl)cc(C(C)(C)C#N)c1)c1nc(N(C)C)nn1-c1ncc(Cl)cn1 (stereo not shown) [I-170] | – | – | – | 100 | 100 | 100 | 100 | – |
| C[C@H](NC(=O)c1cc(C(F)(F)F)cc(C(F)(F)F)c1)c1nc(N)nn1-c1ccc(C#N)cn1 [I-173] | – | – | – | 100 | 90 | 100 | 100 | – |
| C[C@H](NC(=O)c1cc(OC(F)(F)F)cc(C2CC2)c1)c1nc(N2CCOCC2)nn1-c1ccc(C#N)cn1 [I-174] | – | – | – | 100 | – | – | 100 | – |
| C[C@H](NC(=O)c1cc(C(F)(F)F)cc(C(F)(F)F)c1)c1nc(N2CCOCC2)nn1-c1ccc(C#N)cn1 [I-175] | – | – | – | 100 | – | 100 | 100 | – |
| CNc1nc([C@H](C)NC(=O)c2cc(OC(F)(F)F)cc(S(=O)(=O)C(C)C)c2)n(-c2ncccn2)n1 [I-181] | – | – | – | – | – | – | 100 | – |
| CNc1nc([C@H](C)NC(=O)c2cc(OC(F)(F)F)cc(S(=O)(=O)c3ccc(Cl)cc3)c2)n(-c2ncccn2)n1 [I-182] | – | – | – | 100 | – | 100 | 100 | – |
| CNc1nc([C@H](C)NC(=O)c2cc(OC(F)(F)F)cc(S(C)(=O)=O)c2)n(-c2ncccn2)n1 [I-185] | – | – | – | 100 | 100 | – | 100 | – |
| C[C@H](NC(=O)c1cc(OC(F)(F)F)cc(S(C)(=O)=O)c1)c1nc(N)nn1-c1ncccn1 [I-188] | – | – | – | – | 100 | – | 100 | – |
| CCS(=O)(=O)c1cc(C(=O)N[C@@H](C)c2nc(N)nn2-c2ncccn2)cc(C(F)(F)F)c1 [I-189] | – | – | – | – | 100 | – | 100 | – |
| C[C@H](NC(=O)c1cc(C(F)(F)F)cc(S(C)(=O)=O)c1)c1nc(N)nn1-c1ncccn1 [I-211] | – | – | – | – | 100 | – | 100 | – |
